# Assay results taken from ChEMBL document CHEMBL1143041, “On the cytotoxicity and status of oxidative stress of two novel synthesized tri-aza macrocyclic diamides as studied in the V79 cell lines” (Bioorg Med Chem, 2007).
# Assays:
# V79 [1] = assay: Effect on glutathione peroxidase activity in V79 cells at 30 uM after 24 hrs; format: cell-based; settings: Cricetulus griseus
# V79 [2] = assay: Effect on 8-hydroxy-deoxyguanosine level in V79 cells at 30 uM after 24 hrs; format: functional, Cricetulus griseus
# V79 [3] = assay: Effect on superoxide dismutase activity in V79 cells at 30 uM after 24 hrs; format: cell-based; settings: Cricetulus griseus
# V79 [4] = assay: Effect on catalase activity in V79 cells at 30 uM after 24 hrs; format: cell-based; settings: Cricetulus griseus
# V79 [5] = assay: Effect on malondialdehyde level in V79 cells at 30 uM after 24 hrs; format: functional, Cricetulus griseus
# V79 [6] = assay: Effect on dityrosine level in V79 cells at 30 uM after 24 hrs; format: functional, Cricetulus griseus
# V79 [7] = assay: Effect on V79 cells assessed as necrotic cells at 2 mM; format: functional, Cricetulus griseus
# V79 [8] = assay: Effect on glutathione peroxidase activity in V79 cells at 8 mM after 24 hrs in presence of 30 uM alpha-tocopherol; format: cell-based; settings: Cricetulus griseus
# V79 [9] = assay: Effect on V79 cells assessed as apoptotic cells at 2 mM; format: functional, Cricetulus griseus
# V79 [10] = assay: Effect on 8-hydroxy-deoxyguanosine level in V79 cells at 0.5 mM after 24 hrs; format: functional, Cricetulus griseus
# V79 [11] = assay: Effect on V79 cells assessed as necrotic cells at 4 mM; format: functional, Cricetulus griseus
# V79 [12] = assay: Increase in glutathione peroxidase activity in V79 cells at 1 mM after 24 hrs; format: cell-based; settings: Cricetulus griseus
# V79 [13] = assay: Effect on dityrosine level in V79 cells at 2 mM after 24 hrs; format: functional, Cricetulus griseus
# V79 [14] = assay: Effect on malondialdehyde level in V79 cells at 1 mM after 24 hrs; format: functional, Cricetulus griseus
# V79 [15] = assay: Effect on dityrosine level in V79 cells at 8 mM after 24 hrs; format: functional, Cricetulus griseus
# V79 [16] = assay: Increase in catalase activity in V79 cells at 1 mM after 24 hrs; format: cell-based; settings: Cricetulus griseus
# V79 [17] = assay: Effect on V79 cells assessed as apoptotic cells at 4 mM in presence of 30 uM alpha-tocopherol; format: functional, Cricetulus griseus
# V79 [18] = assay: Effect on 8-hydroxy-deoxyguanosine level in V79 cells at 8 mM after 24 hrs in presence of 30 uM alpha-tocopherol; format: functional, Cricetulus griseus
# V79 [19] = assay: Increase in catalase activity in V79 cells at 8 mM after 24 hrs; format: cell-based; settings: Cricetulus griseus
# V79 [20] = assay: Increase in superoxide dismutase activity in V79 cells at 2 mM after 24 hrs; format: cell-based; settings: Cricetulus griseus
# V79 [21] = assay: Increase in glutathione peroxidase activity in V79 cells at 2 mM after 24 hrs; format: cell-based; settings: Cricetulus griseus
# V79 [22] = assay: Effect on catalase activity in V79 cells at 0.5 mM after 24 hrs; format: cell-based; settings: Cricetulus griseus
# V79 [23] = assay: Effect on malondialdehyde level in V79 cells at 4 mM after 24 hrs; format: functional, Cricetulus griseus
# V79 [24] = assay: Effect on malondialdehyde level in V79 cells at 8 mM after 24 hrs in presence of 30 uM alpha-tocopherol; format: functional, Cricetulus griseus
# V79 [25] = assay: Increase in superoxide dismutase activity in V79 cells at 4 mM after 24 hrs; format: cell-based; settings: Cricetulus griseus
# V79 [26] = assay: Effect on glutathione peroxidase activity in V79 cells at 0.5 mM after 24 hrs; format: cell-based; settings: Cricetulus griseus
# V79 [27] = assay: Stimulation of ROS generation in V79 cells; format: functional, cell-based; settings: Cricetulus griseus
# V79 [28] = assay: Effect on V79 cells assessed as viable cells at 4 mM; format: functional; settings: Cricetulus griseus, read-out: Activity
# V79 [29] = assay: Effect on malondialdehyde level in V79 cells at 0.5 mM after 24 hrs; format: functional, Cricetulus griseus
# V79 [30] = assay: Effect on dityrosine level in V79 cells at 0.5 mM after 24 hrs; format: functional, Cricetulus griseus
# V79 [31] = assay: Effect on dityrosine level in V79 cells at 8 mM after 24 hrs in presence of 30 uM alpha-tocopherol; format: functional, Cricetulus griseus
# V79 [32] = assay: Effect on dityrosine level in V79 cells at 4 mM after 24 hrs; format: functional, Cricetulus griseus
# V79 [33] = assay: Effect on V79 cells assessed as apoptotic cells at 2 mM in presence of 30 uM alpha-tocopherol; format: functional, Cricetulus griseus
# V79 [34] = assay: Effect on malondialdehyde level in V79 cells at 8 mM after 24 hrs; format: functional, Cricetulus griseus
# V79 [35] = assay: Effect on catalase activity in V79 cells at 8 mM after 24 hrs in presence of 30uM alpha-tocopherol; format: cell-based; settings: Cricetulus griseus
# V79 [36] = assay: Effect on V79 cells assessed as viable cells at 2 mM in presence of 30 uM alpha-tocopherol; format: functional, Cricetulus griseus
# V79 [37] = assay: Increase in superoxide dismutase activity in V79 cells at 8 mM after 24 hrs; format: cell-based; settings: Cricetulus griseus
# V79 [38] = assay: Effect on V79 cells assessed as apoptotic cells at 4 mM; format: functional, Cricetulus griseus
# V79 [39] = assay: Effect on V79 cells assessed as viable cells at 4 mM in presence of 30 uM alpha-tocopherol; format: functional, Cricetulus griseus
# V79 [40] = assay: Effect on malondialdehyde level in V79 cells at 2 mM after 24 hrs; format: functional, Cricetulus griseus
# V79 [41] = assay: Increase in glutathione peroxidase activity in V79 cells at 8 mM after 24 hrs; format: cell-based; settings: Cricetulus griseus
# V79 [42] = assay: Increase in catalase activity in V79 cells at 4 mM after 24 hrs; format: cell-based; settings: Cricetulus griseus
# V79 [43] = assay: Effect on 8-hydroxy-deoxyguanosine level in V79 cells at 4 mM after 24 hrs; format: functional, Cricetulus griseus
# V79 [44] = assay: Effect on V79 cells assessed as viable cells at 2 mM; format: functional; settings: Cricetulus griseus, read-out: Activity
# V79 [45] = assay: Increase in superoxide dismutase activity in V79 cells at 1 mM after 24 hrs; format: cell-based; settings: Cricetulus griseus
# V79 [46] = assay: Effect on 8-hydroxy-deoxyguanosine level in V79 cells at 2 mM after 24 hrs; format: functional, Cricetulus griseus
# V79 [47] = assay: Effect on superoxide dismutase activity in V79 cells at 0.5 mM after 24 hrs; format: cell-based; settings: Cricetulus griseus
# V79 [48] = assay: Effect on 8-hydroxy-deoxyguanosine level in V79 cells at 1 mM after 24 hrs; format: functional, Cricetulus griseus
# V79 [49] = assay: Increase in catalase activity in V79 cells at 2 mM after 24 hrs; format: cell-based; settings: Cricetulus griseus
# V79 [50] = assay: Effect on 8-hydroxy-deoxyguanosine level in V79 cells at 8 mM after 24 hrs; format: functional, Cricetulus griseus
# V79 [51] = assay: Effect on dityrosine level in V79 cells at 1 mM after 24 hrs; format: functional, Cricetulus griseus
# V79 [52] = assay: Increase in glutathione peroxidase activity in V79 cells at 4 mM after 24 hrs; format: cell-based; settings: Cricetulus griseus
# V79 [53] = assay: Effect on superoxide dismutase activity in V79 cells at 8 mM after 24 hrs in presence of 30 uM alpha-tocopherol; format: cell-based; settings: Cricetulus griseus
# [54] = Cytotoxicity against V79 cells assessed as viability at 8 mM after 24 hrs by MTT assay; format: cell-based, Cricetulus griseus; settings: chinese hamster, read-out: Activity
compound,measurement,setting,value
Cc1c(C)c2c(c(C)c1O)CC[C@@](C)(CCC[C@H](C)CCC[C@H](C)CCCC(C)C)O2 [ALPHA-TOCOPHEROL],Activity,V79 [1],14.1 nmol/min/mg
same,Activity,V79 [2],3.51
same,Activity,V79 [3],13.2 U/mg
same,Activity (microM/min/mg),V79 [4],4.5
same,Activity,V79 [5],7.51 nM/mg
same,Activity,V79 [6],0.42 nM/mg
Cc1ccc2c(c1)Sc1cc(C)ccc1OCC(=O)NCCNCCNC(=O)CO2,Activity,V79 [7],2.6%
same,Activity,V79 [8],20.8 nmol/min/mg
same,Activity,V79 [9],25.1%
same,Activity,V79 [10],4.4
same,Activity,V79 [11],4.1%
same,Activity,V79 [12],23.3 nmol/min/mg
same,Activity,V79 [13],2.45 nM/mg
same,Activity,V79 [14],13.77 nM/mg
same,Activity,V79 [15],8.27 nM/mg
same,Activity (microM/min/mg),V79 [16],8.47
same,Activity,V79 [17],22.6%
same,Activity,V79 [18],5.76
same,Activity (microM/min/mg),V79 [19],27.2
same,Activity,V79 [20],31.2 U/mg
same,Activity,V79 [21],30.6 nmol/min/mg
same,Activity (microM/min/mg),V79 [22],5.48
same,Activity,V79 [23],35.691 nM/mg
same,Activity,V79 [24],15.01 nM/mg
same,Activity,V79 [25],40.1 U/mg
same,Activity,V79 [26],18.6 nmol/min/mg
same,Activity,V79 [27],Dose-dependent effect
same,viability at 4000 µM,V79 [28],58.2%
same,Activity,V79 [29],11.17 nM/mg
same,Activity,V79 [30],0.74 nM/mg
same,Activity,V79 [31],1.43 nM/mg
same,Activity,V79 [32],4.31 nM/mg
same,Activity,V79 [33],17.4%
same,Activity,V79 [34],52.55 nM/mg
same,Activity (microM/min/mg),V79 [35],8.77
same,Activity,V79 [36],80.5%
same,Activity,V79 [37],49.2 U/mg
same,Activity,V79 [38],37.3%
same,Activity,V79 [39],69.1%
same,Activity,V79 [40],21.46 nM/mg
same,Activity,V79 [41],47.6 nmol/min/mg
same,Activity (microM/min/mg),V79 [42],22.4
same,Activity,V79 [43],7.3
same,viability at 2000 µM,V79 [44],71.4%
same,Activity,V79 [45],21.3 U/mg
same,Activity,V79 [46],5.8
same,Activity,V79 [47],18.8 U/mg
same,Activity,V79 [48],5
same,Activity (microM/min/mg),V79 [49],12.2
same,Activity,V79 [50],6.9
same,Activity,V79 [51],1.19 nM/mg
same,Activity,V79 [52],37.5 nmol/min/mg
same,Activity,V79 [53],21.8 U/mg
Cc1ccc2c(c1)[S+]([O-])c1cc(C)ccc1OCC(=O)NCCNCCNC(=O)CO2,Activity,V79 [7],4.6%
same,Activity,V79 [8],22.4 nmol/min/mg
same,Activity,V79 [9],40.2%
same,Activity,V79 [10],4.7
same,Activity,V79 [11],6.3%
same,Activity,V79 [12],22.1 nmol/min/mg
same,Activity,V79 [13],1.61 nM/mg
same,Activity,V79 [14],16.53 nM/mg
same,Activity,V79 [15],6.41 nM/mg
same,Activity (microM/min/mg),V79 [16],9.71
same,Activity,V79 [17],32.7%
same,Activity,V79 [18],6.4
same,Activity (microM/min/mg),V79 [19],35.7
same,Activity,V79 [20],36.4 U/mg
same,Activity,V79 [21],26.3 nmol/min/mg
same,Activity (microM/min/mg),V79 [22],6.81
same,Activity,V79 [23],36.63 nM/mg
same,Activity,V79 [24],17.63 nM/mg
same,Activity,V79 [25],48.7 U/mg
same,Activity,V79 [26],16.6 nmol/min/mg
same,Activity,V79 [27],Dose-dependent effect
same,viability at 4000 µM,V79 [28],41.2%
same,Activity,V79 [29],8.72 nM/mg
same,Activity,V79 [30],0.54 nM/mg
same,Activity,V79 [31],2.21 nM/mg
same,Activity,V79 [32],3.88 nM/mg
same,Activity,V79 [33],28.5%
same,Activity,V79 [34],55.12 nM/mg
same,Activity (microM/min/mg),V79 [35],10.2
same,Activity,V79 [36],71.2%
same,Activity,V79 [37],56.4 U/mg
same,Activity,V79 [38],51.4%
same,Activity,V79 [39],52.6%
same,Activity,V79 [40],25.16 nM/mg
same,Activity,V79 [41],41.1 nmol/min/mg
same,Activity (microM/min/mg),V79 [42],27.2
same,Activity,V79 [43],8.5
same,viability at 2000 µM,V79 [44],54.4%
same,Activity,V79 [45],22.1 U/mg
same,Activity,V79 [46],7.4
same,Activity,V79 [47],14.4 U/mg
same,Activity,V79 [48],5.5
same,Activity (microM/min/mg),V79 [49],15.3
same,"viability at 24 h, 8000 µM",[54],24%
same,Activity,V79 [50],9.1
same,Activity,V79 [51],0.75 nM/mg
same,Activity,V79 [52],33.4 nmol/min/mg
same,Activity,V79 [53],23.5 U/mg
